For data set [1], the system named is mechanical allodynia in STZ-induced DPN rats. As to the kind of experiment: Treatment of neuropathic pain in STZ-induced rat model of DPN, paw withdrawal threshold (von Frey filaments). Particulars: for effect on PWT compared to vehicle (treatment study): established DPN, result in words. It counts as in vivo, Sprague-Dawley rats. Here is the method:
DPN was induced via chemically-induced increases in blood glucose in rats, using streptozotocin (STZ). This is a well-established model for DPN (see Morrow, Current Protocols in Neuroscience (2004); 29(1): 1-11), in which the STZ, an antibiotic extract from Streptomyces acromogenes, selectively damages the β cells of the pancreas.
Sprague-Dawley rats were fasted for 4-6 hours before being injected intraperitoneally with 45 mg/kg STZ. This was performed for all experimental groups, except the naïve group. In order to prevent hypoglycaemic death, rats received 10% sucrose water as the sole water source for the first 48 hours after injection. In order to ensure only those rats considered diabetic (i.e., having non-fasting plasma glucose levels of >250 mg/dL) were included in the study, blood glucose was measured at 72 hours after the STZ injection.
This delay between STZ injection and treatment allows the establishment of chronic pain (allodynia) associated with peripheral and central sensitisation. PS (as an 8% hydrogel) or vehicle control were administered topically to both hind paws of the rats 3 times a day for 3 weeks starting at week 4 after STZ injection. […] 5% lidocaine cream (a positive control) was applied only once to both hind paws of the rats 30 minutes before measurement of PWT.
The rats were split into 8 study groups, with those in the experimental groups (1-4) having an average body weight of about 225 g, and those in the control groups (5-8) having an average body weight of about 335 g, as follows: • 1. Group 1: naïve rats (n=5) • 2. Group 2: STZ only (n=6) • 3. Group 3: STZ plus vehicle (n=6) • 4. Group 4: STZ plus PS (8% hydrogel) (n=7) • 5. Group 5: STZ plus oral vehicle (n=8) • 6. […] Group 7: STZ plus 5% lidocaine cream (n=8) • 8.
In order to determine the outcome of the treatment, mechanical allodynia was measured using the well-established method of von Frey filaments. In particular, a simplified up-down method for estimating paw withdrawal threshold (PWT) using von Frey filaments was used (as described in Bonin et al., Molecular Pain (2014); 10(26):1-10)). The results of the PWT test are expressed as force applied (gm).

Data set [2] shares this test system. The experiment in a line: Prevention of neuropathic pain in STZ-induced rat model of DPN, paw withdrawal threshold (von Frey filaments). Conditions: prevention protocol; for von Frey, gm mean ± SEM (PWT): PS 8% hydrogel or sulindac 0.7% hydrogel topical 3 times a day from day -2 to day 28, lidocaine 5% cream once 30 min before PWT, PWT on day 28; for effect on PWT compared to vehicle (prevention study): day 28, result in words. It counts as in vivo. The source says:
DPN was induced via chemically-induced increases in blood glucose in rats, using streptozotocin (STZ).
The animal model corresponds to that used for Example 1, but using a prevention protocol. As in Example 1, the outcome measure, determining the effect of the treatment on the prevention of mechanical allodynia, was the PWT test, using von Frey filaments. The measurements were taken at day −3, before treatment or induction of neuropathic pain associated with DPN, and again at the end of the study period (day 28).
The rats were randomised into treatment groups as follows, all having an average body weight of about 225 g. • 1. Group 1: naïve rats (n=6) • 2. Group 2: STZ only (n=8) • 3. Group 3: STZ plus vehicle (n=8) • 4. Group 4: STZ plus PS 8% (n=8) • 5. […] Group 6: STZ plus lidocaine cream 5% (n=8)
Each treatment group was subjected to a PWT assessment at day −3 in order to determine the baseline of mechanical allodynia. […] For those rats in the lidocaine treatment group, lidocaine cream was applied only once to both hind paws of the rats 30 min before the final PWT measurement on day 28. On day 0, neuropathic pain associated with DPN was induced with the administration of STZ, and the blood glucose was checked on day 3. Four weeks after the administration of STZ, to provide sufficient time to allow the neuropathic pain associated with DPN (manifested as mechanical allodynia) to develop (see the STZ only group in FIG. 5), the rats were subjected to the paw withdrawal threshold test.

Data set [3] in a line: Pharmacokinetics and biodistribution of PS and its metabolites after topical administration to hind paws. Conditions: for AUC0-24h of PS / Tmax of PS / T1/2 of PS / Cmax: 50 μl per hind paw; for Cmax: read-out: Cmax of PS, mean ± SEM. Here is the method: PS 8% ointment was applied topically to each hind paw (50 μl per paw) with gentle rubbing. At 0.5, 1, 3, 5, 12, 18, and 24 h, mice (n=4-5 mice/time point) were euthanized with CO2 inhalation. Blood was drawn immediately after death. Tissues, including paw skin, paw muscle, leg muscle, the sciatic nerve and lumbar DRG bilaterally were dissected quickly, immediately frozen in liquid nitrogen and stored at −80° C. until analyzed.
Following addition of acetonitrile (twice the volume of the homogenate), the mixture was sonicated for 10 min, centrifuged at 13,200 rpm for 15 min, and analyzed by HPLC, as reported (Wen et al., 2019).
Since the metabolism and PK/biodistribution of PS vary depending on its route of administration, we studied both in normal mice in which PS was administered topically to their hind paws, with particular attention to the sciatic nerve and the dorsal root ganglia (DRG) that are affected in DPN.

Where [4] appears, read: treatment protocol from week 4, sulindac 0.7% hydrogel topical 3 times a day for 1 week (PWT week 5), lidocaine 5% cream once 30 min before PWT, pregabalin 10 mg/kg oral once 1 h before PWT.
Where [5] appears, read: dorsal root ganglia (DRG), normal mice, PS 8% ointment topical.
[6] abbreviates: leg muscle, normal mice, PS 8% ointment topical.
Where [7] appears, read: paw muscle, normal mice, PS 8% ointment topical.
Where [8] appears, read: paw skin, normal mice, PS 8% ointment topical.
Setting [9] is: sciatic nerve (SN), normal mice, PS 8% ointment topical.

Where two headings read alike, the source gives them in different places.

What is called Cmax is the maximum level reached in the sampled fluid or tissue.

For the compound `CCN(CC)CC(=O)Nc1c(C)cccc1C` [lidocaine], the “effect on PWT compared to vehicle (treatment study)” value in data set [1] is “significant increases in PWT compared to vehicle”. The “PWT, gm Mean ± SEM” value in data set [1] (setting [4]) came out at 26.0 ± 1.8 gm. Further, in data set [2], the “von Frey, gm mean ± SEM (PWT)” value was found to be 34.3 ± 1.6 gm and the “effect on PWT compared to vehicle (prevention study)” value is listed as “significantly increased the PWT compared to vehicle”.

In the case of `CC(C)C[C@H](CN)CC(=O)O` [pregabalin], the “effect on PWT compared to vehicle (treatment study)” value in data set [1] is listed as “significant increases in PWT compared to vehicle”.

For the compound `CC1=C(CC(=O)O)c2cc(F)ccc2/C1=C\c1ccc(S(C)(=O)=O)cc1` [sulindac sulfone], in data set [3] (mouse tissues and blood after PS 8% ointment topical, HPLC, limit of quantitation 0.05 μM), the “detection as metabolite of PS” value was “detected”.

For `CC1=C(CC(=O)O)c2cc(F)ccc2/C1=C\c1ccc([S+](C)[O-])cc1` (stereo not drawn) [sulindac], in data set [1], the “effect on PWT compared to vehicle (treatment study)” value is recorded as “failed to suppress the reduced PWT caused by STZ”. The “PWT, gm Mean ± SEM” value in data set [1] (setting [4]) worked out at 23.2 ± 2.6 gm. In data set [2], the “von Frey, gm mean ± SEM (PWT)” value came out at 27.7 ± 1.4 gm and the “effect on PWT compared to vehicle (prevention study)” value was “no significant effect on PWT compared to the vehicle”.

As for phosphosulindac [PS], in data set [1], the “effect on PWT compared to vehicle (treatment study)” value was “significant increase in PWT compared to vehicle and STZ”. In addition, the “PWT, gm Mean ± SEM” value in data set [1] (treatment protocol, PS 8% hydrogel topically to both hind paws 3 times a day for 3 weeks from week 4 after STZ, PWT at week 7, 30 min after last treatment) is 22.5 ± 2.20 gm. Moreover, in data set [2], the “von Frey, gm mean ± SEM (PWT)” value was 33.1 ± 1.6 gm and the “effect on PWT compared to vehicle (prevention study)” value was “significant increase in PWT compared to vehicle”. The “PS in the systemic circulation” value in data set [3] (blood, normal mice, PS 8% ointment topical, limit of quantitation 0.1 μM) is “no PS was detected”. Besides, in data set [3] (setting [5]), the “AUC0-24h of PS” value came out at 4.5 µM·h, the “Tmax of PS” value came out at 1080 min and the maximum concentration (Cmax) was 0.3 ± 0.1 µM. For the same compound, in data set [3] (setting [6]), the “AUC0-24h of PS” value turned out to be 171.6 µM·h, the “T1/2 of PS” value was found to be 20.6 h, the “Tmax of PS” value stood at 30 min and the Cmax was found to be 35 ± 3.6 µM. Besides, the “Tmax of PS in all tissues with the exception of DRG” value in data set [3] (normal mice, PS 8% ointment topical) worked out at 30 min. Further, in data set [3] (setting [7]), the “AUC0-24h of PS” value stood at 411.2 µM·h, the “T1/2 of PS” value was determined as 11.4 h, the “Tmax of PS” value turned out to be 30 min and the highest concentration (Cmax) was determined as 102 ± 4.6 µM. Moreover, in data set [3] (setting [8]), the “AUC0-24h of PS” value is 1,609.8 μM · h, the “T1/2 of PS” value came out at 16.1 h, the “Tmax of PS” value was 30 min and the maximum concentration (Cmax) came to 195 ± 5.3 µM. The “t1/2 of PS in the skin and the muscles” value in data set [3] (range over paw skin, paw muscle, leg muscle, normal mice, PS 8% ointment topical) fell in the range of 11.4 to 20.6 h. Besides, in data set [3] (setting [9]), the maximum concentration (Cmax) was determined as 0.9 ± 0.1 µM, the “AUC0-24h of PS” value stood at 12.0 µM·h, the “T1/2 of PS” value is 57.4 h and the “Tmax of PS” value was found to be 30 min.

For the origin of these results see patent US12295963B2, “Treating pain associated with diabetic peripheral neuropathy” (MEDICON PHARMACEUTICALS, INC., priority 2021, dated 2025).
